The text below walks through data of patent publication US6521590B1, “Biocidal proteins” (priority 1991, dated 2003).

Where no end group is shown, it is not given here.

Series [1] concerns B cinerea. Put plainly: Effect of ions on antifungal activity (synthetic growth medium). The settings on record: for increase of the IC50 values with CaCl2 at 1 mM: reference medium + 1 mM CaCl2; for effect of KCl at 10 mM on the dose-response curves: reference medium + 10 mM KCl; for increase of the IC50 values with KCl at 50 mM: reference medium + 50 mM KCl. It counts as cell-based, Botrytis cinerea.

A short description of series [2]: Chitin micro-column binding. The settings on record: washed at pH 7, desorbed with 100 mM acetic acid (pH 2.8), SDS-PAGE.
The test system of series [3] is Phytophthora infestans. Format: cell-based.
The test system of series [4] is Verticillium albo-atrum (K0937). It counts as cell-based.
For series [5], the system named is Fusarium oxysporum f.sp. lycopersici MUCL 909. Format: cell-based.
For series [6], the system named is Pyrenophora tritici-repentis MUCL 30217. It counts as cell-based.
Series [7] deals with Pyricularia oryzae MUCL 30166. It counts as cell-based.
In series [8] the test system is Botrytis cinerea MUCL 30158. It counts as cell-based.
Series [9] relates to Nectria haematococca Collection Van Etten 160-2-2. It counts as cell-based.
The subject of series [10] is Alternaria brassicola MUCL 20297. Format: cell-based.
The subject of series [11] is Penicillium digitatum (K0879). Format: cell-based.
For series [12], the system named is Rhizoctonia solani CBS 207-84. Format: cell-based.
Series [13] deals with Colletotrichum lindemuthianum MUCL 9577. It counts as cell-based.
In series [14] the test system is Ascochyta pisi MUCL 30164. It counts as cell-based.
Series [15] concerns Fusarium culmorum. Format: physicochemical. How it is done: Tests for antifungal activity were performed with 20 μl samples diluted five-fold with growth medium containing Fusarium culmorum spores, according to the assay method given in Example 1. untreated control samples consisted of the test proteins at 500 μg/ml in 10 mM sodium phosphat buffer (pH 7). For digestions, different proteases were added at 100 μg/ml and incubated at 37° C. for 16 hours. Heat stability tests were performed by heating aliquots of the test proteins for 10 minutes at different temperatures up to 100° C. pH stability was tested by incubation of test proteins for 1 hour in either 20 mM glycine-HCl (pH 2) or glycine-NaOH (pH 11) and subsequent dialysis for 16 hours against 10 mM sodium phosphate buffer (pH 7) using benzoylated cellulose tubing. Reduction of dishulphide bridges was done by addition of DTE at 30 mM and Tris-HCl (pH 8.6) at 300 mM. The reagents were removed by reversed-phase chromatography. For digestions, different proteases were added at 200 μg/ml and incubated at 37° C. for 3 hours.

In series [16] the test system is Saccharomyces cerevisiae JRY188. Conditions: S cerevisiae.
Protocol: Routinely, tests were performed with 20 μl of a (filter-sterilized) test solution and 80 μl of a fungal spore suspension (2×10^4 spores/ml) or mycelium fragments in either half strength potato dextrose broth (medium A) or half strength potato dextrose broth with CaCl2 and KCl added to final concentrations of 1 mM and 50 mM respectively (medium B). For experiments on the antagonistic effect of cations, a synthetic growth medium was used instead of Potato Dextrose Broth. […] Control microcultures contained 20 μl of sterile distilled water and 80 μl of the fungal spore suspension.
Unless otherwise stated the test organism was Fusarium culmorum (strain IMI 180420) and incubation was carried out at 25° C. for 48 hours. Percent growth inhibition is defined as 100 times the ratio of the corrected absorbance of the control microculture minus the corrected absorbance of the test microculture over the corrected absorbance at 595 nm of the control microculture. The corrected absorbance values equal the absorbance at 595 nm of the culture measured after 48 hours minus the absorbance at 595 nm measured after 30 min. […] The antifungal activity (units per ml) is calculated as 50 times the dilution factor of a test solution at which 50% growth inhibition is obtained under the given assay conditions.
Antibacterial activity was measured microspectrophotometrically as follows. […]
Series [17] deals with Fusarium culmorum IMI 180420. Format: cell-based.
Series [18] has as its system Cercospora beticola strain K897. Format: cell-based.
Series [19] deals with Trichoderma viride (K1127). Format: cell-based.
For series [20], the system named is Verticillium dahliae MUCL 19210. It counts as cell-based.
In series [21] the test system is plant pathogenic fungi. It counts as cell-based.
In series [22] the test system is Phoma betae MUCL 9916. Format: cell-based.
For series [23], the system named is Fusarium oxysporum f.sp. pisi IMI 236441. Format: cell-based.
Series [24] has as its system Venturia inaegualis MUCL 15927. Format: cell-based.

Take “Ac-AMP1: Antimicrobial protein from Amaranthus caudatus seeds, 29 residues, dimer of two identical 3 kDa subunits (SEQ ID NO: 5) (VGECVRGRCPSGMCCSQFGYCGKGPKYCG; cysteine pairing not given here; also: dimer of two identical subunits)”: in series [1], the “increase of the IC50 values with CaCl2 at 1 mM” value was “five to six-fold”, the “effect of KCl at 10 mM on the dose-response curves” value is reported as “did not significantly affect the dose-response curves” and the “increase of the IC50 values with KCl at 50 mM” value is recorded as “about three-fold”. The affinity toward chitin entry in series [2] was “exhibit affinity toward chitin”. Also, in [3], the “IC50” value came to 12 µg/mL.

On to “Ca-AMP1: Antimicrobial protein purified from seeds of Capsicum annuum (SEQ ID NO: 15) (QEQCGNQAGGRACANRLCCSQYGYCGSTRAYCGVGCQSNCGR)”, for which the “IC50 (μg/ml) Medium B” value in [4], in series [5], in series [6], in [7], in [8] and in series [9] was greater than 500 µg/mL in each case. For the same substance, the “IC50 (μg/ml) Medium B” value in [10], in series [11], in series [12], in [13], in series [14] and in series [17] was greater than 500 µg/mL throughout. Further, the “IC50 (μg/ml) Medium B” value in [18] is 200 µg/mL; in series [19] it was greater than 500 µg/mL; in series [20], greater than 500 µg/mL; in series [22], greater than 500 µg/mL; in [23], greater than 500 µg/mL. In addition, the “IC50 (μg/ml) Medium A” value is 300 µg/mL in series [5]; 70 µg/mL in series [6]; 5 µg/mL in series [7]; 4 µg/mL in series [9]; 8 µg/mL in series [12]; 50 µg/mL in [13]. For the same substance, the “IC50 (μg/ml) Medium A” value in [17] is 4 µg/mL; in [19], 200 µg/mL; in series [20] it was 6 µg/mL; in series [22], 300 µg/mL; in [23], greater than 500 µg/mL. Further, the affinity toward chitin entry in series [2] is reported as “exhibits affinity to chitin”. Moreover, the “antifungal activity after chymotrypsin treatment” value in series [15] (chymotrypsin digestion, 37° C.) is “no affect on activity”. Further, in [15] (heating for 10 minutes at different temperatures up to 100° C.), the “antifungal activity after heat treatment” value is “resistant to heat treatment at up to 80 °C for 10 minutes”. Also, the “reduction of antifungal activity after pronase E treatment” value in series [15] (pronase E digestion, 37° C.) is “at least 10 fold”. Further, in [15] (proteinase K digestion, 37° C.), the “reduction of antifungal activity after proteinase K treatment” value is recorded as “at least 10 fold”. For the same substance, the “antifungal activity after reduction of disulphide bonds” value in series [15] (reduction by DTE / dithiothreitol) was “completely abolished the antifungal activity”. For the same substance, the “reduction of antifungal activity after trypsin treatment” value in series [15] (trypsin digestion, 37° C.) is on record as 2 fold. For the same substance, the “IC50” value in series [16] is 30 µg/mL. Further, the “morphological changes in partially inhibited fungal spores” value in series [17] is reported as “severe branching of the emerging hyphal tips”. In [21], the “number of pathogenic fungi with IC50 value below 10 μg/ml” value is given as 10 of the fungi.

For the substance “Ac-AMP2: Antimicrobial protein from Amaranthus caudatus seeds, 30 residues, Ac-AMP1 plus a carboxyl-terminal arginine (SEQ ID NO: 6) (VGECVRGRCPSGMCCSQFGYCGKGPKYCGR; not fully specified; cysteine pairing not given here)”, in [1], the “increase of the IC50 values with CaCl2 at 1 mM” value is listed as “five to six-fold”. For the same substance, the “effect of KCl at 10 mM on the dose-response curves” value in series [1] is reported as “did not significantly affect the dose-response curves”. Moreover, the “increase of the IC50 values with KCl at 50 mM” value in series [1] is “about three-fold”. Moreover, the “IC50” value in series [8] came out at 8 µg/mL; in [10], 4 µg/mL; in [13], 8 µg/mL; in series [14], 8 µg/mL; in series [18], 0.8 µg/mL; in series [20] it was 5 µg/mL. In series [24], the “IC50” value amounted to 3 µg/mL. Also, in series [2], the affinity toward chitin result is given as “exhibit affinity toward chitin”.
